In ChEMBL document CHEMBL5325505, “Discovery of chiral 1,4-diarylazetidin-2-one-based hydroxamic acid derivatives as novel tubulin polymerization inhibitors with histone deacetylase inhibitory activity” (Bioorg Med Chem, 2023):
Activity calls are given as the source filed them. The rule behind the calls is not given here.

Key:
[1] = Metabolic stability in human liver microsomes assessed as compound remaining incubated for 30 mins; type: ADME, Microsome; details: liver microsomes, read-out: Stability
[2] = target: T1, Protein deacetylase HDAC6 (Homo sapiens, UniProt Q9UBN7); experiment: Inhibition of HDAC6 (unknown origin)
T1 sequence (Q9UBN7 whole entry): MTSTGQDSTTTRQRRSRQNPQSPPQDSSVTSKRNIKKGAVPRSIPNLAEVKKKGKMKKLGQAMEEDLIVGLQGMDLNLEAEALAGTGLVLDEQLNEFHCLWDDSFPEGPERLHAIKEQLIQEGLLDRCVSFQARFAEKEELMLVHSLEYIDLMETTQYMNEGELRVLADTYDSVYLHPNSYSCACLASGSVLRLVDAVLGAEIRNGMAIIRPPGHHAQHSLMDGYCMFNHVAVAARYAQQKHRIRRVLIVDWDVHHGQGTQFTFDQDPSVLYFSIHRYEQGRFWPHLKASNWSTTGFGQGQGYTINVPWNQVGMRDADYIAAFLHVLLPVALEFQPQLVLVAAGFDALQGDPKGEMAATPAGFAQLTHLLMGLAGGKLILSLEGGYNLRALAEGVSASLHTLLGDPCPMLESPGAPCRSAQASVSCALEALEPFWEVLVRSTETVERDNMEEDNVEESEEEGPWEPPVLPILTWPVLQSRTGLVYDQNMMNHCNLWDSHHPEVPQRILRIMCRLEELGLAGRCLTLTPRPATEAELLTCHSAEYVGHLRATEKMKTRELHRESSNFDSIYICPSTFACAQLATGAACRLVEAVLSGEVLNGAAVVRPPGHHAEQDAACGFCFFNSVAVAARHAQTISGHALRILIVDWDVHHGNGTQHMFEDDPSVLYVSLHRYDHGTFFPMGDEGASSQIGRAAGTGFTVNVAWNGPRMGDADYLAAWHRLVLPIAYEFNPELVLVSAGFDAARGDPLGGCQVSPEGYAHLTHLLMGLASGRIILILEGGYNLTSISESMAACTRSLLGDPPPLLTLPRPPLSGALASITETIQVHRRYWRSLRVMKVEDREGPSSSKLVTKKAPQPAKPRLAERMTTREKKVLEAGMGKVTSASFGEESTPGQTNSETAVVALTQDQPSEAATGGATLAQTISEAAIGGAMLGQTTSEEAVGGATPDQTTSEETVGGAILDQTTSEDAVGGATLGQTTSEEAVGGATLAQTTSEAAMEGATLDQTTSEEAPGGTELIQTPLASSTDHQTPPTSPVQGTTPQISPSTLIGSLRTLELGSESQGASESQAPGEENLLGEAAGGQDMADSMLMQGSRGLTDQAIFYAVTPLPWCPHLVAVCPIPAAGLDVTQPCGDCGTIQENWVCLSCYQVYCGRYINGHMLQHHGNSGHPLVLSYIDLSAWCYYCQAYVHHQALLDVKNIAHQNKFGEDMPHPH

[3] = target: Tubulin (Homo sapiens) (UniProt P68371+Q9H4B7+P0DPH7+P68366+Q13509+Q71U36+P04350+Q3ZCM7+P07437+P68363+Q9BQE3+Q6PEY2+Q13885+Q9BVA1+Q9BUF5); experiment: Inhibition of tubulin polymerization in human BE2C cells assessed as decrease in tubulin density at 25 to 100 nM incubated for 24 hrs by immunofluorescence based microscopy; type: cell-based; details: dose 25-100 nM
[4] = test system: BE(2)-C; experiment: Induction of apoptosis in human BE2C cells assessed as late apoptotic cells at 100 nM incubated for 48 hrs by annexin V-FITC/PI staining based flow cytometry (reference value: 9.99 %); type: functional
[5] = test system: BE(2)-C; experiment: Induction of cell cycle arrest in human BE2C cells assessed as accumulation at G2/M phase at 100 nM incubated for 24 hrs by RNase/PI staining based flow cytometry (reference value: 31 %); type: functional
[6] = test system: BE(2)-C; experiment: Induction of cell cycle arrest in human BE2C cells assessed as accumulation at G2/M phase incubated for 24 hrs by RNase/PI staining based flow cytometry; type: functional
[7] = test system: U-87 MG; experiment: Antiproliferative activity against human U-87 MG cells incubated for 48 hrs by MTT assay; type: functional, cell-based, U-87MG ATCC

- remaining at 0.5 h [1]: 58.2%
- IC50 [2]: 1040 nM
- inhibition [3]: Active
- IC50 [7]: 56 nM
Compound: COc1ccc([C@H]2[C@H](COC(=O)c3ccc(C(=O)NO)cc3)C(=O)N2c2cc(OC)c(OC)c(OC)c2)cc1O
- Activity [4]: 44%
- Activity [5]: ~77%
- Activity [6]: Dose-Dependent Effect
